In brackets after ≈: the same amount, converted by molar mass.
How the values were obtained:
[1] = test system: LPS-stimulated RAW264.7 macrophages; assay: Nitric oxide production determination (Griess reagent); assay type: cell-based, murine; settings: LPS 100 ng/mL, PA1 1.56-50 μg/mL, vs LPS-alone
Method: Murine RAW264.7 macrophages and human esophageal cancer cell lines KYSE-70, KYSE-150, KYSE-410, KYSE-520 were maintained in RPMI 1640 or DMEM medium supplemented with 100 U/mL penicillin, 100 μg/mL streptomycin and 10% FBS in an incubator at 37° C. with a humidified atmosphere of 5% CO2. Cells were sub-cultured every three days at a dilution of 1:6. Nitric oxide (NO) production was indirectly assessed by measuring the nitrite levels in the cultured medium determined by a colorimetric method based on the Griess reagent. The cells were co-treated with various concentrations of PA1 in the absence or presence of LPS (100 ng/mL) at 37° C. for 24 hours. Then, 100 μL of each supernatant was mixed with the equal volume of Griess reagent incubated at room temperature for 15 minutes; meanwhile, sodium nitrite was used as a standard substance. The optical densities were measured at 540 nm with a micro-plate reader.

KYSE-450 cells = assay: MTT cytotoxicity assay; assay type: cell-based; settings: Homo sapiens, 48 h
Method: (§1) Murine RAW264.7 macrophages and human esophageal cancer cell lines KYSE-70, KYSE-150, KYSE-410, KYSE-520 were maintained in RPMI 1640 or DMEM medium supplemented with 100 U/mL penicillin, 100 μg/mL streptomycin and 10% FBS in an incubator at 37° C. with a humidified atmosphere of 5% CO2. Cells were sub-cultured every three days at a dilution of 1:6.
(§2) In the present invention, PA1 was dissolved in dimethyl sulfoxide (DMSO) to make stock solutions which were further diluted in culture medium for this experiment. Cells were seeded in a 96-well plate (3×10^3 cells/well) and allowed to attach to the plate overnight. After the recovery, cells were treated with 1.56, 3.125, 6.25, 12.5, 25, 50 μg/mL of PA1 in culture medium for 48 h. Then, 20 μL of MTT (5 mg/mL stock in PBS) per well was added into the medium (200 μL) and incubated for 4 h at 37° C. Finally, the culture medium was removed and 200 μL of DMSO were added to dissolve the purple formazan crystals. Absorbance of the solution was measured using a microplate reader spectrophotometer (Bio-Rad Laboratories, Inc., Hercules, Calif.) at a wavelength of 570 nm.
To determine the cytotoxic effect of PA1 against human esophagus cancer cells (KYSE-70, KYSE-150, KYSE-450 and KYSE-520 cell lines), MTT (3-[4,5-dimethylthiazol-2-yl]-2,5-diphenyltetrazolium bromide) assay was performed.

RAW264.7 macrophages = assay: Cell viability of RAW macrophages; assay type: cell-based, murine; settings: RAW cells, 1.56-50 μg/mL, 20 hours
Method: as §2, with “Murine RAW264.7 macrophages and human esophageal cancer cell lines KYSE-70, KYSE-150, KYSE-410, KYSE-520 were maintained in RPMI 1640 or DMEM medium supplemented with 100 U/mL penicillin, 100 μg/mL streptomycin and 10% FBS in an incubator at 37° C. with a humidified atmosphere of 5% CO2. Cells were sub-cultured every three days at a dilution of 1:6. In the” for “In the”, “plate overnight. […] Then, 20” for “plate overnight. After the recovery, cells were treated with 1.56, 3.125, 6.25, 12.5, 25, 50 μg/mL of PA1 in culture medium for 48 h. Then, 20”

DSS-induced colitis = DSS-induced colitis mouse model; assay type: in vivo, C57BL/6 mice
Source text: 7-week-old male C57BL/6 mice weighing about 20-22 g were purchased from the Laboratory Animal Services Center, the Chinese University of Hong Kong. The study protocols were approved by the committee for Care of Laboratory Animals in the School of Chinese Medicine at the Hong Kong Baptist University.
The animals were randomly assigned into five groups (n=8). Mice in the control group were supplied with distilled water whereas all other experimental groups were given 2.0% (w/v) dextran sulphate sodium (DSS) for 5 days. Thereafter, the mice of the DSS, SASP-treated (200 mg/kg/day) and PA1 (10 or 30 mg/kg/day)-treated groups were administered by gavage with saline, SASP or PA1 from day 6 to day 13, respectively.
The DAI was determined by scoring changes in the body weight, diarrhea, colon length, and bleeding.
The colons were dissected longitudinally, gently washed with ice-cold phosphate buffer saline (PBS), fixed in 4% paraformaldehyde overnight, and embedded in paraffin. Each of five-micro-meter sections was stained with hematoxylin/eosin according to a standard procedure to evaluate colonic damage.
Myeloperoxidase (MPO) is an enzyme mainly released by neutrophil, and its activity is directly associated with the severity of inflammation in a given tissue. In the present invention, MPO activity was measured as described in the inventor's earlier publication (Mu, H. X., et al., Anti-inflammatory Actions of (|)-3′alpha-Angeloxy-4′-keto-3′,4′-dihydroseselin (Pd-Ib) against Dextran Sulfate Sodium-Induced Colitis in C57BL/6 Mice. J Nat Prod, 2016). The results were normalized to the wet weight of colon tissue and quantified as units/g tissue.

KYSE-150 cells [2] = assay: MTT cell viability, KYSE-150; assay type: cell-based, human; settings: 6.25 μg/mL
Method: as §2, with “Murine RAW264.7 macrophages and human esophageal cancer cell lines KYSE-70, KYSE-150, KYSE-410, KYSE-520 were maintained in RPMI 1640 or DMEM medium supplemented with 100 U/mL penicillin, 100 μg/mL streptomycin and 10% FBS in an incubator at 37° C. with a humidified atmosphere of 5% CO2. Cells were sub-cultured every three days at a dilution of 1:6. In the” for “In the”

KYSE-150 cells [3] = assay: Wound healing assay; assay type: cell-based, human; settings: PA1 6.25 μg/mL, 72 hours
Method: as §1
6×10^4 cell/well were seeded in 12 well-plate at 30% confluence in completed medium. After 24 hours seeding, the monolayer was wounded by scoring with a sterile plastic tip (1 mL), then washed twice with PBS to remove cell debris and then incubated in a conditioned medium in the absence or presence of PA1 at 6.25 μg/mL for various periods of time up to 72 hours. Cell migration into the wound surface was monitored by Olympus IX71 microscopy and digitally photographed.
In addition, wound-healing assay was used to test whether those compounds could affect cell motility. A confluent monolayer of KYSE-150 cells was scratched to form a wound and incubated in the absence or presence of PA1 at 6.25 μg/mL. The results obtained were compared to that of controls.

[4] = mice, 2% DSS, PA1 10 or 30 mg/kg/day by gavage day 6-13

**Q.** What does the source list for `Oc1cc(O)c2c(c1)OC1(c3ccc(O)c(O)c3)Oc3cc(O)c4c(c3C2C1O)OC(c1ccc(O)c(O)c1)[C@@H](O)C4` (some centres unmarked) [PA1, proanthocyanidin A1]?
**A.** NO production [1]: significant inhibition of NO production; IC50 (KYSE-450 cells): 48.6 µg/mL (≈ 84.4 µM); Cell viability (RAW264.7 macrophages): did not alter the cells viability; Colonic MPO activity (DSS-induced colitis; colon homogenates, day 14, vs DSS group): significantly lower the MPO activity; Histological manifestation of colon (H&E) (DSS-induced colitis; mice, 2% DSS, PA1 10 or 30 mg/kg, vs DSS group): reduction in mucosal ulceration, crypt damage, edema, and cell infiltration into mucosal tissue; Disease activity index (DAI) score (DSS-induced colitis; [4]): clinical improvement; Mortality (DSS-induced colitis; [4]): decreased; Body weight loss (DSS-induced colitis; mice, 2% DSS, PA1 10 or 30 mg/kg/day by gavage day 6-13, vs DSS group): reduced body weight loss; Shortening of colon length (DSS-induced colitis; mice, 2% DSS, PA1 10 or 30 mg/kg/day by gavage, day 14): rectified; Cell viability (KYSE-150 cells [2]): did not alter the cells viability; Cell migration into the wound (KYSE-150 cells [3]): did not migrate into the wound
